PubChem BioAssay (NCI)
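Compound exposure: 48 hours, 5 concentrations, 96-well plates. GI50: concentration for 50% inhibition of growth. At the TGI there is no net growth.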

Legend:
Assay in all cases: NCI-60 cell line screen, 48 h
[1] = test system: 786-0 renal
[2] = test system: A498 renal
[3] = test system: A549 NSCLC
[4] = test system: ACHN renal
[5] = test system: BT-549 breast
[6] = test system: CAKI-1 renal
[7] = test system: CCRF-CEM leukemia
[8] = test system: COLO 205 colon
[9] = test system: DU-145 prostate
[10] = test system: EKVX NSCLC
[11] = test system: HCC-2998 colon
[12] = test system: HCT-116 colon
[13] = test system: HCT-15 colon
[14] = test system: HL-60(TB) leukemia
[15] = test system: HOP-62 NSCLC
[16] = test system: HOP-92 NSCLC
[17] = test system: HT29 colon
[18] = test system: IGROV1 ovarian
[19] = test system: K-562 leukemia
[20] = test system: KM12 colon
[21] = test system: M14 melanoma
[22] = test system: MALME-3M melanoma
[23] = test system: MCF7 breast
[24] = test system: MDA-MB-435
[25] = test system: MDA-MB-468 breast
[26] = test system: MOLT-4 leukemia
[27] = test system: NCI-H226 lung
[28] = test system: NCI-H23 lung
[29] = test system: NCI-H460 lung
[30] = test system: NCI-H522 lung
[31] = test system: NCI/ADR-RES ovarian
[32] = test system: OVCAR-3 ovarian
[33] = test system: OVCAR-4 ovarian
[34] = test system: OVCAR-5 ovarian
[35] = test system: OVCAR-8 ovarian
[36] = test system: PC-3 prostate
[37] = test system: RPMI-8226 leukemia
[38] = test system: RXF 393 renal
[39] = test system: SF-268 CNS
[40] = test system: SF-295 CNS
[41] = test system: SF-539 CNS
[42] = test system: SK-MEL-2 melanoma
[43] = test system: SK-MEL-28 melanoma
[44] = test system: SK-MEL-5 melanoma
[45] = test system: SK-OV-3 ovarian
[46] = test system: SN12C renal
[47] = test system: SNB-19 CNS
[48] = test system: SNB-75 CNS
[49] = test system: SR leukemia
[50] = test system: T-47D breast
[51] = test system: TK-10 renal
[52] = test system: U251 CNS
[53] = test system: UACC-257 melanoma
[54] = test system: UACC-62 melanoma
[55] = test system: UO-31 renal
[56] = test system: HS 578T breast
[57] = test system: LOX IMVI melanoma
[58] = test system: MDA-MB-231 breast
[59] = test system: SW-620 colon

COc1ccc(-c2ccnc(SCc3cc4ccccc4[nH]c3=O)n2)cc1OC
GI50 [1]: 14.5 µM | TGI [1]: 37.9 µM | GI50 [2]: 17.8 µM | TGI [2]: 50.9 µM | GI50 [3]: 23.6 µM | TGI [3]: > 100 µM | GI50 [4]: 13.5 µM | TGI [4]: 27.8 µM | GI50 [5]: 7.58 µM | TGI [5]: 34.8 µM | GI50 [6]: 8.22 µM | TGI [6]: 25.4 µM | GI50 [7]: 34.3 µM | TGI [7]: > 100 µM | GI50 [8]: 33.9 µM | TGI [8]: > 100 µM | GI50 [9]: 18.1 µM | TGI [9]: 71.9 µM | GI50 [10]: 14.6 µM | TGI [10]: 53.5 µM | GI50 [11]: 21.4 µM | TGI [11]: 58.8 µM | GI50 [12]: 21.2 µM | TGI [12]: > 100 µM | GI50 [13]: 20 µM | TGI [13]: > 100 µM | GI50 [14]: 99.6 µM | TGI [14]: > 100 µM | GI50 [15]: 16.4 µM | TGI [15]: 45.8 µM | GI50 [16]: 1.84 µM | TGI [16]: 14.9 µM | GI50 [17]: 18.8 µM | TGI [17]: 40.6 µM | GI50 [18]: 16.8 µM | TGI [18]: 39.8 µM | GI50 [19]: 5.48 µM | TGI [19]: > 100 µM | GI50 [20]: 30.8 µM | TGI [20]: > 100 µM | GI50 [21]: 40.3 µM | TGI [21]: > 100 µM | GI50 [22]: 23.1 µM | TGI [22]: 54.4 µM | GI50 [23]: 26.9 µM | TGI [23]: > 100 µM | GI50 [24]: 30.6 µM | TGI [24]: > 100 µM | GI50 [25]: 4.27 µM | TGI [25]: 34 µM | GI50 [26]: 7.17 µM | TGI [26]: > 100 µM | GI50 [27]: 13 µM | TGI [27]: 37.2 µM | GI50 [28]: 17.4 µM | TGI [28]: 42.6 µM | GI50 [29]: 26.8 µM | TGI [29]: > 100 µM | GI50 [30]: 18.3 µM | TGI [30]: 61.1 µM | GI50 [31]: 14.3 µM | TGI [31]: 49.8 µM | GI50 [32]: 19.5 µM | TGI [32]: 56.4 µM | GI50 [33]: 19.1 µM | TGI [33]: 84.6 µM | GI50 [34]: 12.7 µM | TGI [34]: 30.8 µM | GI50 [35]: 23.2 µM | TGI [35]: > 100 µM | GI50 [36]: 16.5 µM | TGI [36]: 50.8 µM | GI50 [37]: 16.3 µM | TGI [37]: > 100 µM | GI50 [38]: 5.45 µM | TGI [38]: 27.6 µM | GI50 [39]: 20.8 µM | TGI [39]: > 100 µM | GI50 [40]: 13.7 µM | TGI [40]: 34 µM | GI50 [41]: 12.4 µM | TGI [41]: 27.4 µM | GI50 [42]: 16.9 µM | TGI [42]: 50.4 µM | GI50 [43]: 17.3 µM | TGI [43]: 38.5 µM | GI50 [44]: 13 µM | TGI [44]: 42.8 µM | GI50 [45]: 19.9 µM | TGI [45]: 41.7 µM | GI50 [46]: 12.4 µM | TGI [46]: 34.9 µM | GI50 [47]: 16.9 µM | TGI [47]: 54 µM | GI50 [48]: 4.36 µM | TGI [48]: 23.6 µM | GI50 [49]: 18.3 µM | TGI [49]: > 100 µM | GI50 [50]: 11 µM | TGI [50]: 38.9 µM | GI50 [51]: 17.5 µM | TGI [51]: 58.9 µM | GI50 [52]: 19.9 µM | TGI [52]: > 100 µM | GI50 [53]: 30.6 µM | TGI [53]: 89.9 µM | GI50 [54]: 14.5 µM | TGI [54]: 41 µM | GI50 [55]: 11.1 µM | TGI [55]: 26.6 µM

CC12OOC(C)(OO1)C2CCC(=O)OCCNc1ccnc2cc(Cl)ccc12 (stereo unspecified)
GI50 [1]: 4.95 µM | TGI [1]: 16.5 µM | GI50 [2]: > 18.3 µM | TGI [2]: > 18.3 µM | GI50 [3]: 4.17 µM | TGI [3]: 12.2 µM | GI50 [4]: 1.59 µM | TGI [4]: 3.81 µM | GI50 [5]: > 18.3 µM | TGI [5]: > 18.3 µM | GI50 [6]: 3.21 µM | TGI [6]: 5.96 µM | GI50 [7]: 5.36 µM | TGI [7]: 17.5 µM | GI50 [8]: 3.57 µM | TGI [8]: 10.8 µM | GI50 [9]: 3.47 µM | TGI [9]: 6.32 µM | GI50 [10]: > 18.3 µM | TGI [10]: > 18.3 µM | GI50 [11]: > 18.3 µM | TGI [11]: > 18.3 µM | GI50 [12]: 3.59 µM | TGI [12]: 8.67 µM | GI50 [13]: 2.87 µM | TGI [13]: 5.47 µM | GI50 [14]: > 18.3 µM | TGI [14]: > 18.3 µM | GI50 [15]: > 18.3 µM | TGI [15]: > 18.3 µM | GI50 [16]: 2.72 µM | TGI [16]: 7.92 µM | GI50 [56]: > 18.3 µM | TGI [56]: > 18.3 µM | GI50 [17]: 3.46 µM | TGI [17]: 8.62 µM | GI50 [18]: 6.59 µM | TGI [18]: > 18.3 µM | GI50 [19]: 4.11 µM | TGI [19]: 11.8 µM | GI50 [20]: > 18.3 µM | TGI [20]: > 18.3 µM | GI50 [57]: 2.87 µM | TGI [57]: 5.39 µM | GI50 [21]: 10.8 µM | TGI [21]: > 18.3 µM | GI50 [22]: 3.1 µM | TGI [22]: 5.98 µM | GI50 [23]: 7.76 µM | TGI [23]: > 18.3 µM | GI50 [58]: > 18.3 µM | TGI [58]: > 18.3 µM | GI50 [24]: 18.3 µM | TGI [24]: > 18.3 µM | GI50 [25]: 2.87 µM | TGI [25]: 7.73 µM | GI50 [26]: 16.8 µM | TGI [26]: > 18.3 µM | GI50 [27]: 4.19 µM | TGI [27]: 14.2 µM | GI50 [28]: > 18.3 µM | TGI [28]: > 18.3 µM | GI50 [29]: 6.3 µM | TGI [29]: > 18.3 µM | GI50 [30]: 3.23 µM | TGI [30]: 6.53 µM | GI50 [31]: > 18.3 µM | TGI [31]: > 18.3 µM | GI50 [32]: 3.71 µM | TGI [32]: 7.21 µM | GI50 [33]: 3.5 µM | TGI [33]: 7.42 µM | GI50 [34]: > 18.3 µM | TGI [34]: > 18.3 µM | GI50 [35]: 16.8 µM | TGI [35]: > 18.3 µM | GI50 [36]: > 18.3 µM | TGI [36]: > 18.3 µM | GI50 [37]: 8.81 µM | TGI [37]: > 18.3 µM | GI50 [39]: > 18.3 µM | TGI [39]: > 18.3 µM | GI50 [40]: > 18.3 µM | TGI [40]: > 18.3 µM | GI50 [41]: > 18.3 µM | TGI [41]: > 18.3 µM | GI50 [42]: > 18.3 µM | TGI [42]: > 18.3 µM | GI50 [43]: > 18.3 µM | TGI [43]: > 18.3 µM | GI50 [44]: > 18.3 µM | TGI [44]: > 18.3 µM | GI50 [45]: > 18.3 µM | TGI [45]: > 18.3 µM | GI50 [46]: > 18.3 µM | TGI [46]: > 18.3 µM | GI50 [47]: > 18.3 µM | TGI [47]: > 18.3 µM | GI50 [48]: > 18.3 µM | TGI [48]: > 18.3 µM | GI50 [49]: 3.35 µM | TGI [49]: 8.03 µM | GI50 [59]: 5.83 µM | TGI [59]: > 18.3 µM | GI50 [50]: > 18.3 µM | TGI [50]: > 18.3 µM | GI50 [51]: 2.69 µM | TGI [51]: 6.03 µM | GI50 [52]: > 18.3 µM | TGI [52]: > 18.3 µM | GI50 [53]: > 18.3 µM | TGI [53]: > 18.3 µM | GI50 [54]: > 18.3 µM | TGI [54]: > 18.3 µM | GI50 [55]: 2.57 µM | TGI [55]: 4.94 µM
